Experimental data published in ChEMBL document CHEMBL3714748, “Compounds and compositions as ITPKB inhibitors” (2012).

What was measured:
Kinase = biological target: T1, Kinase (Mus musculus, UniProt B2RXC2); experiment: Inhibition of mouse ITPKb (640 to 942 residues) expressed in Escherichia coli HK100 assessed as reduction in IP3 phosphorylation incubated for 60 mins by kinase-Glo ATP depletion assay
T1 sequence (B2RXC2 whole entry): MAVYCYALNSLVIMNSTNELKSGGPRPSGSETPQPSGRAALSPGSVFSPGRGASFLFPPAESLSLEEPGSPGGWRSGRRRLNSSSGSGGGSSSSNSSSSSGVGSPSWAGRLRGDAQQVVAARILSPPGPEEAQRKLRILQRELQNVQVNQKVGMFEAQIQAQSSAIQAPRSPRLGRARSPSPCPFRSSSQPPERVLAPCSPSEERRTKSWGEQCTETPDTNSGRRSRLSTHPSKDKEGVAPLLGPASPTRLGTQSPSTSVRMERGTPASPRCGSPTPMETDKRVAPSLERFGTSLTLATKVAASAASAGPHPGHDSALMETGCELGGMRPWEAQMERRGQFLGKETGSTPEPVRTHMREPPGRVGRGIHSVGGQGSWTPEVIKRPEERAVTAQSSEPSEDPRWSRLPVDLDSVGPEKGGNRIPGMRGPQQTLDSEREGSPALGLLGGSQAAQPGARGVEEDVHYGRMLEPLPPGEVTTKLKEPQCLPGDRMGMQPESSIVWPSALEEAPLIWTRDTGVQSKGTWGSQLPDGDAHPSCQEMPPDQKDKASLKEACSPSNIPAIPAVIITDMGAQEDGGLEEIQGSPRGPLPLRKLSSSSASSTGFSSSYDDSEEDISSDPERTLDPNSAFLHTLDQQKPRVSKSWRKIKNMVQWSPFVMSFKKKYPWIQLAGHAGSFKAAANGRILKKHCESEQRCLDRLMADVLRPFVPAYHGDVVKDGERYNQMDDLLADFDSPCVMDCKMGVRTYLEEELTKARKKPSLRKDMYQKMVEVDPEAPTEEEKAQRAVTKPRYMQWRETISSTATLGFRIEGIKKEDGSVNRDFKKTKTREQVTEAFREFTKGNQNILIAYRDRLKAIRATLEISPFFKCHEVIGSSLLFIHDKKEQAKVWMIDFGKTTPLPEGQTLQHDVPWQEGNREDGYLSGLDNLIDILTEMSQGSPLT

[1] = biological target: T2, Inositol-trisphosphate 3-kinase B (Homo sapiens, UniProt P27987); experiment: Inhibition of ITPKb in human Jurkat cells assessed as reduction in conversion of IP3 to IP4 using [3H]-myo-inositol incubated for 5 mins by beta-RAM radio-HPLC method; assay type: cell-based
T2 sequence (P27987 whole entry): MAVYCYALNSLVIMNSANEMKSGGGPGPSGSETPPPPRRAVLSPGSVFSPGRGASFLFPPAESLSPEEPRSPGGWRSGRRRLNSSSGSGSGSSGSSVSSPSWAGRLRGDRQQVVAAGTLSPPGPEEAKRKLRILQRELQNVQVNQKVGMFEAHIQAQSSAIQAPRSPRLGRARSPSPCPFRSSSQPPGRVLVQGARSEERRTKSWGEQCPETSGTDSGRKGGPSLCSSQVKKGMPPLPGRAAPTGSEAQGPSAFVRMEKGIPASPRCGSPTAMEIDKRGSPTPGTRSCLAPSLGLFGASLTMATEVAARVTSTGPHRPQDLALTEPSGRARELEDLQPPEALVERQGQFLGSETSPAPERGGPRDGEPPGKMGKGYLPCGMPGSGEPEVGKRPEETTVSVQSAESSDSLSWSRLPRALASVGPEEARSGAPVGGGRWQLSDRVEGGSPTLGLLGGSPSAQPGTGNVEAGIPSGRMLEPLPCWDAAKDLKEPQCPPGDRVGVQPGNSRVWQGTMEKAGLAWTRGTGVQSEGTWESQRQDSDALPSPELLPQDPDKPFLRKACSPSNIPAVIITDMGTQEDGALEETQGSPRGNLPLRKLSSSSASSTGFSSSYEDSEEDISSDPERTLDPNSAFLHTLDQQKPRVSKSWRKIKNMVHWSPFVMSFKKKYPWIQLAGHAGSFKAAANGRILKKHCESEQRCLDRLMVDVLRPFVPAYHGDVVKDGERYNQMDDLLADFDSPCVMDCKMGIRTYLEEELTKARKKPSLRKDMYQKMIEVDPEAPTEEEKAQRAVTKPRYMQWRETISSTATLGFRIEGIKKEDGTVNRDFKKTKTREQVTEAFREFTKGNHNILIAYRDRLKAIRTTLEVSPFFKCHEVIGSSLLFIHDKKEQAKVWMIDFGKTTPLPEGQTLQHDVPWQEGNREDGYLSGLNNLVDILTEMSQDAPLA

Structure (SMILES) | IC50 (Kinase) | IC50 [1]
O=C1NCc2cc(-c3n[nH]cc3CN3CCN(c4ccc(C(F)(F)F)cn4)[C@@H](C(F)(F)F)C3)ccc2O1 | < 100 nM | < 500 nM
C[C@@H]1CN(Cc2c[nH]nc2-c2ccc3c(c2)C(C)(C)NC(=O)O3)CCN1c1ccc(C(F)(F)F)cn1 | < 100 nM | < 500 nM
C[C@@H]1CN(Cc2c[nH]nc2-c2ccc3c(c2)CNC(=O)O3)CCN1Cc1ccccc1F | < 100 nM | < 500 nM
O=C1NCc2cc(-c3n[nH]cc3CN3CCN(c4ccc(C(F)(F)F)cn4)C[C@H]3CO)ccc2O1 | < 100 nM | < 500 nM
O=C1Cc2ccc(-c3n[nH]cc3CN3CCCN(c4ccc(C(F)(F)F)cn4)CC3)cc2CN1 | < 100 nM | < 500 nM
Cc1cccc(N2CCN(Cc3c[nH]nc3-c3ccc4[nH]c(=O)oc4c3)CC2)c1C | < 100 nM | < 500 nM
C[C@@H]1CN(Cc2c[nH]nc2-c2ccc3c(c2)CNC(=O)O3)CCN1c1ccc(C(F)(F)F)cc1 | < 100 nM | < 500 nM
O=C1NCc2cc(-c3n[nH]cc3CN3CCN(c4ccc(C(F)(F)F)cn4)[C@H](CO)C3)ccc2O1 | < 100 nM | < 500 nM
C[C@@H]1CN(Cc2c[nH]nc2-c2ccc3[nH]c(=O)oc3c2)CCN1c1ccc(C(F)(F)F)cn1 | < 100 nM | < 500 nM
C[C@@H]1CN(Cc2c[nH]nc2-c2ccc3oc(=O)[nH]c3c2)CCN1c1ccc(C(F)(F)F)cn1 | < 100 nM | < 500 nM
O=c1[nH]c(=O)c2cc(-c3n[nH]cc3CN3C4CCC3CN(c3ccc(C(F)(F)F)cn3)C4)ccc2o1 | < 100 nM | < 500 nM
C[C@@H]1CN(Cc2c[nH]nc2-c2ccc3c(c2)CNC(=O)O3)CCN1c1cc(C#N)ccn1 | < 100 nM | < 500 nM
C[C@@H]1CN(Cc2c[nH]nc2-c2ccc3c(c2)C(=O)NC(=O)C3)CCN1c1ccc(C(F)(F)F)cn1 | < 100 nM | < 500 nM
O=c1[nH]c(=O)c2cc(-c3n[nH]cc3CN3CCN(c4ccc(C(F)(F)F)cn4)CC3)ccc2o1 | < 100 nM | < 500 nM
O=C1NCc2cc(-c3n[nH]cc3CN3CCCN(c4ccc(C(F)(F)F)cn4)CC3)ccc2O1 | < 100 nM | < 500 nM
O=C1NCc2cc(-c3n[nH]cc3CN3CCN(c4ccc(C(F)(F)F)cn4)C(C(F)(F)F)C3)ccc2O1 (stereo not drawn) | < 100 nM | < 500 nM
C[C@@H]1CN(Cc2c[nH]nc2-c2ccc3c(c2)CNC(=O)O3)CCN1C1CCCCC1 | < 100 nM | < 500 nM
C[C@@H]1CN(Cc2c[nH]nc2-c2ccc3oc(=O)[nH]c(=O)c3c2)CCN1c1ccc(C(F)(F)F)cn1 | < 100 nM | < 500 nM
C[C@@H]1CN(Cc2c[nH]nc2-c2ccc3c(c2)CNC(=O)C3)CCN1c1ccc(C(F)(F)F)cn1 | < 100 nM | < 500 nM
Cc1ccc(N2CCN(Cc3c[nH]nc3-c3ccc4c(c3)CNC(=O)O4)C[C@H]2C)nc1 | < 100 nM | < 500 nM
O=C1NCc2cc(-c3n[nH]cc3CN3CCN(c4ccc(C(F)(F)F)cn4)CC3)ccc2O1 | < 100 nM | < 500 nM

Structure (SMILES) | IC50 (Kinase) | IC50 [1]
C[C@@H]1CN(Cc2n[nH]nc2-c2ccc3c(c2)CNC(=O)O3)CCN1c1ccc(C(F)(F)F)cn1 | < 100 nM | < 500 nM
C[C@@H]1CN(Cc2c[nH]nc2-c2ccc3c(c2)CNC(=O)O3)CCN1c1nccc(C(F)(F)F)n1 | < 100 nM | < 500 nM
O=C1NCc2cc(-c3n[nH]cc3CN3CCN(c4ccc(C(F)(F)F)cn4)C[C@H]3CF)ccc2O1 | < 100 nM | < 500 nM
O=C1NCc2cc(-c3n[nH]cc3CN3CCN(c4ccc(C(F)(F)F)cn4)CC3C(F)(F)F)ccc2O1 (stereo not drawn) | < 100 nM | 
O=C1NCc2cc(-c3n[nH]cc3CN3C4CCC3CN(c3ccc(C(F)(F)F)cn3)C4)ccc2O1 | < 100 nM | < 500 nM
O=C1NCc2cc(-c3n[nH]cc3CN3CCCN(c4ccc(C(F)(F)F)cn4)CC3)ccc2N1 | < 100 nM | < 500 nM
C[C@@H]1CN(Cc2c[nH]nc2-c2ccc3c(c2)CNC(=O)O3)CCN1c1ccc(C#N)cn1 | < 100 nM | < 500 nM
C[C@H]1CN(Cc2c[nH]nc2-c2ccc3oc(=O)[nH]c(=O)c3c2)CCN1c1ccc(C(F)(F)F)cn1 | < 100 nM | < 500 nM
O=C1NCc2cc(-c3n[nH]cc3CN3CCN(c4ccc(C(F)(F)F)cn4)[C@H](C(F)(F)F)C3)ccc2O1 | < 100 nM | < 500 nM
O=C1NCc2cc(-c3n[nH]cc3CN3C4CC3CN(c3ccc(C(F)(F)F)cn3)C4)ccc2O1 | < 100 nM | < 500 nM
O=C1NCc2cc(-c3n[nH]cc3CN3CCN(c4ccc(C(F)(F)F)cn4)[C@H](CF)C3)ccc2O1 | < 100 nM | < 500 nM
O=C1NCc2cc(-c3n[nH]cc3CN3CCN(c4ccc(C(F)(F)F)cn4)C[C@H]3C(=O)O)ccc2O1 | < 100 nM | < 500 nM
C[C@H]1CN(Cc2c[nH]nc2-c2ccc3[nH]c(=O)oc3c2)CCN1c1ccc(C(F)(F)F)cn1 | < 100 nM | < 500 nM
C[C@@H]1CN(Cc2c[nH]nc2-c2ccc3c(c2)CNC(=O)N3)CCN1c1ccc(C(F)(F)F)cn1 | < 100 nM | < 500 nM
C[C@H]1CN(Cc2c[nH]nc2-c2ccc3c(c2)CNC(=O)O3)CCN1c1ccc(C(F)(F)F)cn1 | < 100 nM | < 500 nM
C[C@@H]1CN(Cc2c[nH]nc2-c2ccc3c(c2)CNC(=O)O3)CCN1c1ccc(C(F)(F)F)cn1 | < 100 nM | < 500 nM
C[C@@H]1CN(Cc2c[nH]nc2-c2ccc3c(c2)CNC(=O)O3)CCN1c1cccc(C(F)(F)F)c1 | < 100 nM | < 500 nM
Cc1cccc(N2CCN(Cc3c[nH]nc3-c3ccc4oc(=O)[nH]c(=O)c4c3)CC2)c1C | < 100 nM | < 500 nM
C[C@@H]1CN(Cc2c[nH]nc2-c2ccc3c(c2)CNC(=O)O3)CCN1c1ccc(Cl)cn1 | < 100 nM | < 500 nM
O=C1NCc2cc(-c3n[nH]cc3CN3CCN(c4ccc(C(F)(F)F)cn4)C4(CC4)C3)ccc2O1 | < 100 nM | < 500 nM
C[C@@H]1CN(Cc2c[nH]nc2-c2ccc3c(c2)CNC(=O)O3)CCN1c1ccc(Cl)cc1 | < 100 nM | < 500 nM
